Source: ChEMBL document CHEMBL5370642, “Synthesis and Bioevaluation of 3-(Arylmethylene)indole Derivatives: Discovery of a Novel ALK Modulator with Antiglioblastoma Activities” (J Med Chem, 2023)
Activity calls are given as the source filed them. The calls are words filed in the database; no cut-off is given here.

What was measured:
[1] = system: GL261; test: Induction of autophagy in mouse GL261 cells transfected with mRFP-GFPLC3 adenovirus assessed as yellow fluorescence at 2 uM incubated for 48 hrs by confocal microscopy; type: functional, cell-based
[2] = AUC (0 to 8hrs) in C57BL6/J mouse at 5 mg/kg, iv measured upto 24 hrs by LC-MS/MS analysis; type: ADME, organism-based; set-up: dose 5 mg/kg, time < 24 hrs, route iv; conditions: in vivo
[3] = biological target: ALK tyrosine kinase receptor (Mus musculus) (UniProt P97793); test: Inhibition of ALK phosphorylation in mouse GL261 cells at 0.5 to 2 uM incubated for 24 hrs by Western blot analysis; type: cell-based; conditions: dose 0.5-2 µM
[4] = Volume of distribution at steady state in C57BL6/J mouse at 5 mg/kg, iv measured upto 24 hrs by LC-MS/MS analysis; type: ADME, organism-based; conditions: in vivo, read-out: Vdss
[5] = system: Mus musculus; test: Anti glioblastoma activity against mouse GL261-mNeonGreenLuc cells stereotaxically injected in corpus striatum of orthotopic glioblastoma mouse model assessed as increase in survival rate at 5 mg/kg, ip once daily measured on day 21; type: functional, organism-based
[6] = system: U-87 MG; test: Anti-proliferative activity against human U-87 MG cells assessed as decrease in cell viability incubated for 24 to 72 hrs by CCK8 assay; type: functional, cell-based; conditions: U-87MG ATCC, dose 0.5-10 µM, time 24-72 hrs
[7] = AUC (0 to 8hrs) in C57BL6/J mouse at 5 mg/kg, ip measured upto 24 hrs by LC-MS/MS analysis; type: ADME, organism-based; set-up: dose 5 mg/kg, time < 24 hrs, route ip; conditions: in vivo
[8] = system: GL261; test: In vivo induction of autophagy in mouse GL261 cells transfected with mRFP-GFPLC3 adenovirus allografted in C57BL/6J mouse model assessed as LC3 puncta in tumor tissue at 2.5 to 5 mg/kg, ip by immunofluorescence assay; type: functional, organism-based; conditions: dose 2.5-5 mg/kg
[9] = biological target: ALK tyrosine kinase receptor (Mus musculus) (UniProt P97793); test: Binding affinity to ALK in mouse GL261 cell lysate assessed as immunoprecipitation measured after overnight incubation by pull-down assay; type: subcellular
[10] = system: GL261; test: Induction of apoptosis in mouse GL261 cells assessed as necrotic cells measured at 0.5 to 2 uM after 72 hrs by flow cytometry; type: functional, cell-based; conditions: dose 0.5-2 µM
[11] = system: GL261; test: Anti-proliferative activity against mouse GL261 cells assessed as inhibition rate at 2 uM incubated for 72 hrs by CCK8 assay relative to control; type: functional
[12] = biological target: ALK tyrosine kinase receptor (Homo sapiens, UniProt Q9UM73); test: Inhibition of human ALK using GF-IRtide as substrate by Kinase-Glo Plus luminescence kinase assay
[13] = system: GL261; test: Induction of cell cycle arrest in mouse GL261 cells assessed as accumulation at S phase at 1 uM incubated for 72 hrs by flow cytometry (reference value: 13.9%); type: functional, cell-based
[14] = system: GL261; test: Induction of apoptosis in mouse GL261 cells assessed as increase in cleaved PARP level measured at 0.5 to 2 uM after 24 hrs by Western blot analysis; type: functional, cell-based; conditions: dose 0.5-2 µM
[15] = Tmax in C57BL6/J mouse at 5 mg/kg, ip measured upto 24 hrs by LC-MS/MS analysis; type: ADME, organism-based; conditions: in vivo

ALK tyrosine kinase receptor (Mus musculus), sequence (P97793 whole entry): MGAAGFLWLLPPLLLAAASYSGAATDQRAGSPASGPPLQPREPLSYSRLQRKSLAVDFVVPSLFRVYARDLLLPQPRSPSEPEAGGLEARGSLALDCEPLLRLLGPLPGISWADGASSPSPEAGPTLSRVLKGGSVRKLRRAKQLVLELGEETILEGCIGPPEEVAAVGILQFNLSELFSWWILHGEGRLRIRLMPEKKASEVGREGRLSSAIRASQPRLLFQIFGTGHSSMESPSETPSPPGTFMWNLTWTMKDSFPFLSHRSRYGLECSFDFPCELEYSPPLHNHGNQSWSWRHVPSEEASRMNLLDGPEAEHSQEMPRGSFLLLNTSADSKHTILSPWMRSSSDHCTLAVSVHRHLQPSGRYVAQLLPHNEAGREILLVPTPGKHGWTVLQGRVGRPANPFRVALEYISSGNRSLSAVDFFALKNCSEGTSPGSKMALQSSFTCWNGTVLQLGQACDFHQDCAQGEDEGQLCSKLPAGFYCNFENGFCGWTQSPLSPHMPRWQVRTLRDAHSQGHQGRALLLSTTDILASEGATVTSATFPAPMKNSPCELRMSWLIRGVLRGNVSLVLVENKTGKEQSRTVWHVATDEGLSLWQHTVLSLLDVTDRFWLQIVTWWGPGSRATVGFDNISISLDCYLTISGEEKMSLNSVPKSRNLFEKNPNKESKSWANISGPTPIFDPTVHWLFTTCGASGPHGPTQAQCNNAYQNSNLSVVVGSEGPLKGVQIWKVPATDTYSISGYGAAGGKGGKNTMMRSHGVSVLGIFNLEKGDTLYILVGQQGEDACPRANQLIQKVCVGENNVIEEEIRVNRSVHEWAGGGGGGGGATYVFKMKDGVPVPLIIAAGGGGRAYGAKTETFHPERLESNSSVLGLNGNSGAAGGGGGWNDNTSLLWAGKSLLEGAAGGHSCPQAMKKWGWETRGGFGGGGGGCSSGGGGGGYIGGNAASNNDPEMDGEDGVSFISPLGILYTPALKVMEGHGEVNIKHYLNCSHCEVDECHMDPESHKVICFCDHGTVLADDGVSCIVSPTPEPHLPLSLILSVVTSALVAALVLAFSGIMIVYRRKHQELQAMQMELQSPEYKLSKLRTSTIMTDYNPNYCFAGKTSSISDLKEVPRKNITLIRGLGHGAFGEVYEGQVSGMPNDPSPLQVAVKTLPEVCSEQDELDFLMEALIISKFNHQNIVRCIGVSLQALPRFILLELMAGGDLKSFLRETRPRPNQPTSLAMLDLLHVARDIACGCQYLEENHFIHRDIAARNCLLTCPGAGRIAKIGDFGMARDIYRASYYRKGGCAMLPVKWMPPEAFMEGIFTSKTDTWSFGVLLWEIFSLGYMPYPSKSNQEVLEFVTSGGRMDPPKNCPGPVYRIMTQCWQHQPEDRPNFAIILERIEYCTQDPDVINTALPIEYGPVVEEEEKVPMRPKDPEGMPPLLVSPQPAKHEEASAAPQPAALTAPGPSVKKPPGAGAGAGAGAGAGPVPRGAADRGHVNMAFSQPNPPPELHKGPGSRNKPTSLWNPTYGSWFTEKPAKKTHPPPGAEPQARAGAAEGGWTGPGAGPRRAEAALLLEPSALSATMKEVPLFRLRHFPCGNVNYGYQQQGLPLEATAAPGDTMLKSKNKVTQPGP
ALK tyrosine kinase receptor, sequence (Q9UM73 whole entry): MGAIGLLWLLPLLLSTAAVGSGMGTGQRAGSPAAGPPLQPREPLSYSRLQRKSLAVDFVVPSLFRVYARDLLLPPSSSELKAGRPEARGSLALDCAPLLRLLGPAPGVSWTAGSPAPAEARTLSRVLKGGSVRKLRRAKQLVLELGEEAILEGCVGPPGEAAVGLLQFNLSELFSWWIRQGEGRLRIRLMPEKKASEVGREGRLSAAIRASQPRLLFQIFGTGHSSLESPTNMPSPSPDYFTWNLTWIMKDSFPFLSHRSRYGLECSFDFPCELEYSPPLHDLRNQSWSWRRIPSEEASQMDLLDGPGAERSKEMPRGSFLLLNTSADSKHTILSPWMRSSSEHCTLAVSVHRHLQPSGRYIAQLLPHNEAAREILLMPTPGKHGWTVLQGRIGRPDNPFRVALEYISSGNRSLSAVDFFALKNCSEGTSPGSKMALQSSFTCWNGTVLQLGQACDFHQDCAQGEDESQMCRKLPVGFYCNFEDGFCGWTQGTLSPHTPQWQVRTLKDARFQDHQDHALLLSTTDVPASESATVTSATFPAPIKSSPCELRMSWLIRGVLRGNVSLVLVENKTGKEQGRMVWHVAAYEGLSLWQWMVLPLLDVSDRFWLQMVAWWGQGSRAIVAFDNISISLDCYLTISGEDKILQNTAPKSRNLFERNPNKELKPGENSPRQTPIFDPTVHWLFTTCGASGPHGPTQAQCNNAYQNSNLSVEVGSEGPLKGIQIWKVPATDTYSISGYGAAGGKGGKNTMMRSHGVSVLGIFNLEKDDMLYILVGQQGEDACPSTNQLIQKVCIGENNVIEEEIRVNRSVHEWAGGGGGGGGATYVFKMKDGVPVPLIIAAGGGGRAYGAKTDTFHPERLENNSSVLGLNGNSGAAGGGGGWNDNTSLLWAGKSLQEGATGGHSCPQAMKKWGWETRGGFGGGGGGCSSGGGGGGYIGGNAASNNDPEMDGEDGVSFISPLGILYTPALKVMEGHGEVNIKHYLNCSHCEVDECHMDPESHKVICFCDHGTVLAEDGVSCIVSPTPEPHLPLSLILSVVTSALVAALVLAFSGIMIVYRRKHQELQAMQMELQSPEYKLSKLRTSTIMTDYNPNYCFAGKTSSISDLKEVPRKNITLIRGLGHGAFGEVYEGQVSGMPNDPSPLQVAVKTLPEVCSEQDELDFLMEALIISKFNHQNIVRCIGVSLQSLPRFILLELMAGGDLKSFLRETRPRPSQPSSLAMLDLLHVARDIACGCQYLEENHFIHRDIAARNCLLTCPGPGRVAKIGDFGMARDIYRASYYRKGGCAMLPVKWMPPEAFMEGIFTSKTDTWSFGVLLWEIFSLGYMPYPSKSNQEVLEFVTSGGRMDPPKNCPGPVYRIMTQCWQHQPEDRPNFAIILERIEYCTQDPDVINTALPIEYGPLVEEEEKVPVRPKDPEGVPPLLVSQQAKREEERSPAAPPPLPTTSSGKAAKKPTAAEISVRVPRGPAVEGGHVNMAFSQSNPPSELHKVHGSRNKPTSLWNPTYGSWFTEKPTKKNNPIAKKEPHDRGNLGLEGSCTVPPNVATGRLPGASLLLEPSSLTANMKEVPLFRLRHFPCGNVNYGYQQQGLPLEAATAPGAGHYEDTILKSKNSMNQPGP

With `Cc1ccc(S(=O)(=O)n2cc(Cc3cc(C)c(O)c(C)c3)c3ccccc32)cc1` the Activity [1] was “Active”, the AUC(0-t) at 24 h [2] was 885 ng·h/mL and the inhibition [3] was “Active”. The Vd [4] was 4.59 L/kg, the Activity [5] was “Active” and the Activity [6] was “Dose-Dependent Effect”. For the same molecule, the AUC(0-t) at 24 h [7] was 340 ng·h/mL, the Activity [8] was “Active” and the Activity [9] was “Active”. For the same molecule, the Activity [10] was “Active”, the inhibition at 2 µM [11] was 80% and the IC50 [12] was 7 µM. The Activity [13] was “Active”, the Activity [14] was “Active” and the Tmax [15] was 34.8 min.
